The results in this text go back to patent US20260285888A1, “HETEROCYCLIC COMPOUND AND USE THEREOF” (OTSUKA PHARMACEUTICAL CO., LTD., priority 2023, published 2026).

Data set [1] can be described thus: Dog irritation study (subcutaneous injection site, histopathological examination). As to conditions: stated as reason for choice as positive control. Format: in vivo. The protocol:
Male beagle dogs were purchased at the age of 5-7 months from Kitayama Labes Co., Ltd. and used in the experiment after acclimatization. The breeding environment was as follows: feeding: 250 g of solid feed once a day, water intake: unlimited, number of animals per cage: 1, temperature: 21-25° C., humidity: 50-70%, lighting time: 7:00-19:00. The test formulation was subcutaneously administered to dogs anesthetized with 25 mg/kg thiopental sodium using a plastic syringe at a dose of 10 mg/kg per formulation, changing the position on the back. […] The collected tissues were fixed in 10% neutral buffered formalin, and hematoxylin and eosin-stained specimens were prepared for histopathological examination.

Data set [2] is described as follows: Study for confirmation of conversion to brexpiprazole in a buffer (stability of the evaluation compounds). Format: physicochemical. As to conditions: in buffer, average of duplicate; for Concentration of brexpiprazole formed: 60-minute reaction sample; for Concentration of evaluation compound decreased: decrease in 60-minute vs 0-minute reaction sample. Summed up:
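Compounds (final 1 μmol/L, from 100 μmol/L working solutions) incubated in buffer at 37° C. for 0 or 60 min, in duplicate, after 3 min pre-incubation of the reaction solution. Reactions stopped with acetonitrile/isopropanol (4:1) containing internal standards; compound and formed brexpiprazole quantified against 0.01–1 μmol/L calibration samples.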

The test system of data set [3] is HL-60 cells. Description: in vitro. Format: cell-based, human. Summed up:
(§1)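 Cytotoxicity (%) from supernatant LDH activity after ~24 h treatment at 300 μmol/L final, normalised to no-treatment (0%) and lysis buffer (100%). Cells were PMA-differentiated (10 nM, ~72 h) HL-60 in 2% FBS medium; triplicate means.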

A short description of data set [4]: in vitro. As to conditions: human, differentiated hl-60 cells, 300 μmol/L, about 24 hours, PMA-differentiated HL-60 cells, LDH; no-treatment 0%, cell lysis buffer 100%; read-out: cytotoxicity (%) Evaluation compound results. Format: cell-based, human. The procedure, abridged:
as §1

The mark [5] stands for this setting: human, differentiated hl-60 cells, 24 h, 300 µM.

For the compound `CCCCCC(=O)OCn1c(=O)ccc2ccc(OCCCCN3CCN(c4cccc5sccc45)CC3)cc21` [Reference Example 3 compound, (7-(4-(4-(benzo[b]thiophen-4-yl)piperazin-1-yl)butoxy)-2-oxoquinolin-1(2H)-yl)methyl hexanoate], the “irritation when subcutaneously administered to dogs” value in data set [1] is “showed irritation”.
Regarding `COCCOCCOP(=O)([O-])OC[N+]1(CCCCOc2ccc3ccc(=O)[nH]c3c2)CCN(c2cccc3sccc23)CC1` [EX 7, (4-(benzo[b]thiophen-4-yl)-1-(4-((2-oxo-1,2-dihydroquinolin-7-yl)oxy)butyl)piperazin-1-ium-1-yl)methyl (2-(2-methoxyethoxy)ethyl)phosphate], in data set [2], the “Concentration of brexpiprazole formed” value came to 0 nM and the “Concentration of evaluation compound decreased” value is -60 nM. Also, the “cytotoxicity (%) Evaluation compound results” value in data set [3] (setting [5]) was −4%.
With “(4-(benzo[b]thiophen-4-yl)-1-(4-(2-oxo-1,2-dihydroquinolin-7-yl)oxy)butyl)piperazin-1-ium-1-yl)methyl (5-bromopentyl) phosphate [EX 114]”, in data set [3] (setting [5]), the “cytotoxicity (%) Evaluation compound results” value stood at 14%.
For the compound `O=C(OC[N+]1(CCCCOc2ccc3ccc(=O)[nH]c3c2)CCN(c2cccc3sccc23)CC1)N1CCCCC1` [Reference Example 4 compound, reference compound], in data set [3] (300 μmol/L, about 24 hours, HL-60 cells), the “cytotoxicity compared with the controls (in words)” value is listed as “stronger cytotoxicity than that of the Reference Example 3 compound”.
As for “(4-(benzo[b]thiophen-4-yl)-1-(4-((2-oxo-1,2-dihydroquinolin-7-yl)oxy)butyl)piperazin-1-ium-1-yl)methyl(2-(2-butoxyethoxy)ethyl) phosphate [EX 99]”, in data set [2], the “Concentration of brexpiprazole formed” value was 0 nM and the “Concentration of evaluation compound decreased” value was 0 nM. Moreover, in data set [3] (setting [5]), the “cytotoxicity (%) Evaluation compound results” value is on record as −6%.
As to `CCOP(=O)([O-])OC[N+]1(CCCCOc2ccc3ccc(=O)[nH]c3c2)CCN(c2cccc3sccc23)CC1` [EX 3, (4-(benzo[b]thiophen-4-yl)-1-(4-((2-oxo-1,2-dihydroquinolin-7-yl)oxy)butyl)piperazin-1-ium-1-yl)methyl ethyl phosphate], in data set [2], the “Concentration of brexpiprazole formed” value amounted to 0 nM and the “Concentration of evaluation compound decreased” value was 10 nM. The “cytotoxicity (%) Evaluation compound results” value in data set [3] (300 μmol/L, about 24 hours, PMA-differentiated HL-60 cells, LDH, no-treatment 0%, cell lysis buffer 100%) is on record as −7%.
Take `CC(C)(C)OC(=O)CNP(=O)([O-])OC[N+]1(CCCCOc2ccc3ccc(=O)[nH]c3c2)CCN(c2cccc3sccc23)CC1` [EX 155, (4-(benzo[b]thiophen-4-yl)-1-(4-((2-oxo-1,2-dihydroquinolin-7-yl)oxy)butyl)piperazin-1-ium-1-yl)methyl (2-(tert-butoxy)-2-oxoethyl)phosphoramidate]: in data set [2], the “Concentration of brexpiprazole formed” value was 0 nM and the “Concentration of evaluation compound decreased” value was 160 nM. The cytotoxicity at 24 h, 300 µM in data set [4] was -3%.
In the same order, the values of `O=c1ccc2ccc(OCCCC[N+]3(COP(=O)([O-])OCCCCCCCCO)CCN(c4cccc5sccc45)CC3)cc2[nH]1` [EX 11, (4-(benzo[b]thiophen-4-yl)-1-(4-((2-oxo-1,2-dihydroquinolin-7-yl)oxy)butyl)piperazin-1-ium-1-yl)methyl (8-hydroxyoctyl) phosphate] are 0 nM, 30 nM and 16%.
In the same order, the values of `Cc1ncccc1C(=O)OCOP(=O)([O-])OC[N+]1(CCCCOc2ccc3ccc(=O)[nH]c3c2)CCN(c2cccc3sccc23)CC1` [EX 81, (4-(benzo[b]thiophen-4-yl)-1-(4-(2-oxo-1,2-dihydroquinolin-7-yl)oxy)butyl)piperazin-1-ium-1-yl)methyl (((2-methylnicotinoyl)oxy)methyl) phosphate] are 0 nM, -30 nM and 8%.
For `CCOC(=O)CCCCCOC(=O)OCOP(=O)([O-])OC[N+]1(CCCCOc2ccc3ccc(=O)[nH]c3c2)CCN(c2cccc3sccc23)CC1` [EX 144], in that order: 0 nM, 120 nM and 18%.
For the compound “(4-(benzo[b]thiophen-4-yl)-1-((4-((2-oxo-1,2-dihydroquinolin-7-yl)oxy)butyl)piperazin-1-ium-1-yl)methyl hydrogen phosphate [EX 1]”, in data set [2], the “Concentration of brexpiprazole formed” value was 0 nM and the “Concentration of evaluation compound decreased” value stood at 0 nM. Besides, the “cytotoxicity (%) Evaluation compound results” value in data set [3] (setting [5]) is recorded as −7%.
Turning to `O=c1ccc2ccc(OCCCC[N+]3(COP(=O)([O-])OCCCCCCO)CCN(c4cccc5sccc45)CC3)cc2[nH]1` [EX 44, (4-(benzo[b]thiophen-4-yl)-1-(4-((2-oxo-1,2-dihydroquinolin-7-yl)oxy)butyl)piperazin-1-ium-1-yl)methyl (6-hydroxyhexyl) phosphate], in data set [2], the “Concentration of brexpiprazole formed” value was 0 nM and the “Concentration of evaluation compound decreased” value was -50 nM. Moreover, in data set [4], the cytotoxicity at 24 h, 300 µM was -8%.
As to `O=c1ccc2ccc(OCCCC[N+]3(COP(=O)([O-])OCCCCCCCO)CCN(c4cccc5sccc45)CC3)cc2[nH]1` [EX 45, (4-(benzo[b]thiophen-4-yl)-1-(4-((2-oxo-1,2-dihydroquinolin-7-yl)oxy)butyl)piperazin-1-ium-1-yl)methyl (7-hydroxyheptyl) phosphate], in data set [2], the “Concentration of brexpiprazole formed” value came to 0 nM and the “Concentration of evaluation compound decreased” value came to 70 nM. In addition, the cytotoxicity at 24 h, 300 µM in data set [4] turned out to be 3%.
In the same order, the values of `CC(C)COCCOP(=O)([O-])OC[N+]1(CCCCOc2ccc3ccc(=O)[nH]c3c2)CCN(c2cccc3sccc23)CC1` [EX 51, (4-(benzo[b]thiophen-4-yl)-1-(4-((2-oxo-1,2-dihydroquinolin-7-yl)oxy)butyl)piperazin-1-ium-1-yl)methyl (2-isobutoxyethyl) phosphate] are 0 nM, 50 nM and -9%.
With `O=c1ccc2ccc(OCCCC[N+]3(COP(=O)([O-])OCCN4CCCCC4)CCN(c4cccc5sccc45)CC3)cc2[nH]1` [EX 118, (4-(benzo[b]thiophen-4-yl)-1-(4-((2-oxo-1,2-dihydroquinolin-7-yl)oxy)butyl)piperazin-1-ium-1-yl)methyl (2-(piperidin-1-yl)ethyl) phosphate], in data set [2], the “Concentration of brexpiprazole formed” value is 0 nM and the “Concentration of evaluation compound decreased” value worked out at 60 nM. Further, in data set [4], the cytotoxicity at 24 h, 300 µM was -8%.
For the compound `CC(C)(CO)COP(=O)([O-])OC[N+]1(CCCCOc2ccc3ccc(=O)[nH]c3c2)CCN(c2cccc3sccc23)CC1` [EX 48, (4-(benzo[b]thiophen-4-yl)-1-(4-((2-oxo-1,2-dihydroquinolin-7-yl)oxy)butyl)piperazin-1-ium-1-yl)methyl (3-hydroxy-2,2-dimethylpropyl) phosphate], in data set [2], the “Concentration of brexpiprazole formed” value was 0 nM and the “Concentration of evaluation compound decreased” value is -30 nM. For the same compound, in data set [4], the cytotoxicity at 24 h, 300 µM was -9%.
